Read-outs that look alike come from different tables or passages of the source.
System: IL-1β production in PMA-differentiated THP-1 cells
Assay: IL-1β production in PMA-differentiated THP-1 cells stimulated with gramicidin (hTHP-1 assay, 2% fetal bovine serum; Procedures 1-3)
Type: cell-based, human
How it was run: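 PMA-primed THP-1 cells (20 ng/ml PMA, 16-18 h) in RPMI with 2% FBS were pre-incubated with compounds for 1 h, from 100 μM downward in 3-fold steps (0.37% DMSO final), then stimulated with 5 μM gramicidin for 2 h. IL-1β in the supernatant was quantified by HTRF.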

[1] = Table B1, hTHP-1 assay containing 2% fetal bovine serum, gramicidin stimulation, IL-1β readout, read-out: hTHP-1 IC50 (average)
[2] = hTHP-1 assay containing 2% fetal bovine serum, Table B2, class symbols, read-out: IC50
[3] = Homo sapiens, THP-1, hTHP-1 assay containing 2% fetal bovine serum, Table B2, class symbols, read-out: IC50
[4] = Homo sapiens, THP-1, Table B1, hTHP-1 assay containing 2% fetal bovine serum, gramicidin stimulation, IL-1β readout, read-out: hTHP-1 IC50 (average)
[5] = Homo sapiens, THP-1, hTHP-1 assay containing 2% fetal bovine serum, Table B2, given as bound, read-out: IC50
[6] = Homo sapiens, THP-1, Table B3, hTHP-1 assay containing 2% fetal bovine serum, gramicidin stimulation, IL-1β readout, read-out: hTHP-1 IC50

## CN1CCc2cc(S(N)(=O)=NC(=O)Nc3c4c(cc5c3CCC5)CCC4)ccc2C1 (single isomer, unassigned) [Example 395, (R) or (S)-N′-((1,2,3,5,6,7-hexahydro-s-indacen-4-yl)carbamoyl)-2-methyl-1,2,3,4-tetrahydroisoquin-oline-6-sulfonimidamide]
[1]
  IC50: 1000 to 5000 nM

## CC(C)(O)c1cc(S(N)(=O)=NC(=O)Nc2c3c(c(C#N)c4c2CCC4)CCC3)nn1-c1ccccc1 (single isomer, unassigned) [Example 574, (S) or (R)-N′-((8-cyano-1,2,3,5,6,7-hexahydro-s-indacen-4-yl)carbamoyl)-5-(2-hydroxypropan-2-yl)-1-pheny-1H-pyrazole-3-sulfonimidamide]
[2]
  IC50: 5000 to 30000 nM

## N=S(=O)(NC(=O)Nc1c2c(cc3c1CCC3)CCC2)c1nn(C(F)F)cc1F (single isomer, unassigned) [Example 710]
[2]
  IC50: 40 to 200 nM

## COC(C)(C)c1ccc(S(N)(=O)=NC(=O)Nc2c3c(cc4c2CCC4)CCC3)cc1 (single isomer, unassigned) [Example 399, (R) or (S)-N′-((1,2,3,5,6,7-hexahydro-s-indacen-4-yl)carbamoyl)-4-(2-meth-oxypropan-2-yl)benzene-sulfonimidamide]
[1]
  IC50: 200 to 1000 nM

## CN1CCCC(c2ccc(S(N)(=O)=NC(=O)Nc3c4c(cc5c3CC5)CCC4)c(F)c2)C1 (centres unmarked) [Example 766, 2-Fluoro-4-(1-methylpiperidin-3-yl)-N′-((2,4,5,6-tetrahydro-1H-cyclobuta[f]inden-3-yl)carbamoyl)benzenesulfonimidamide]
Table B3, hTHP-1 assay containing 2% fetal bovine serum, gramicidin stimulation, IL-1β readout, read-out: hTHP-1 IC50
  IC50: 1000 to 5000 nM

## N[S@@](=O)(=NC(=O)Nc1c2c(cc3c1CCC3)CCC2)c1ccc(CNC2CCOCC2)cc1 [Example 703, (R)-N′-((1,2,3,5,6,7-hexahydro-s-indacen-4-yl)carbamoyl)-4-(((tetrahydro-2H-pyran-4-yl)-amino)methyl)benzenesulfonimidamide]
[3]
  IC50: 1000 to 5000 nM

## CC(O)(CO)c1cc(F)c(S(N)(=O)=NC(=O)Nc2c3c(c(C#N)c4c2CCC4)CCC3)s1 (single isomer, unassigned) [Example 630, (R,R) or (S,R)-N′-((8-cyano-1,2,3,5,6,7-hexahydro-s-indacen-4-yl)carbamoyl)-5-(1,2-dihydroxypropan-2-yl)-3-fluorothiophene-2-sulfonimidamide]
[2]
  IC50: 8 to 40 nM

## CC(O)(CO)c1ncc(S(N)(=O)=NC(=O)Nc2c3c(cc4c2CCC4)CCC3)s1 (centres unmarked) [Example 436, 2-(1,2-Dihydroxypropan-2-yl)-N′-((1,2,3,5,6,7-hexahydro-s-indacen-4-yl)carbamoyl)thiazole-5-sulfonimidamide]
[2]
  IC50: 8 to 40 nM

## C[C@](O)(CO)c1ncc(S(N)(=O)=NC(=O)Nc2c3c(cc4c2CC4)CCC3)s1 (some centres unmarked) [919f^]
[3]
  IC50: 8 to 40 nM

## Cc1c(C2CC2)cc2c(c1NC(=O)N=[S@](N)(=O)c1cc(C(C)(C)O)cs1)CCC2 (single isomer, unassigned) [Example 521, (S) or (R)-N′-((6-cyclopropyl-5-methyl-2,3-dihydro-1H-inden-4-yl)carbamoyl)-4-(2-hydroxyprepan-2-yl)thiophene-2-sulfonimidamide]
[2]
  IC50: 1000 to 5000 nM

## CN(C)CC(C)(C)c1ccc([S@](N)(=O)=NC(=O)Nc2c3c(cc4c2CCC4)CCC3)cc1 [Compound 902a]
[5]
  IC50: > 30000 nM

## NS(=O)(=NC(=O)Nc1c2c(cc3c1CCC3)CCC2)c1ccc(-c2ccccc2)s1 (centres unmarked) [Compound 917]
[3]
  IC50: 5000 to 30000 nM

## N#Cc1c2c(c(NC(=O)N=S(N)(=O)c3cnc(C(O)(CO)CO)s3)c3c1CCC3)CCC2 (centres unmarked) [Example 678, N′-((8-cyano-1,2,3,5,6,7-hexahydro-s-indacen-4-yl)carbamoyl)-2-(1,2,3-trihydroxypropan-2-yl)thiazole-5-sulfonimidamide]
[3]
  IC50: 5000 to 30000 nM

## CC(C)n1nc([S@](N)(=O)=NC(=O)Nc2c3c(cc4c2C(=O)CC4)CCC3)cc1C(C)(C)O [Compound 908a]
[5]
  IC50: > 30000 nM

## CC(C)(O)c1ccc([S@](N)(=O)=NC(=O)Nc2c3c(cc4c2C(=O)CC4)CCC3)cn1 [Compound 804b]
[3]
  IC50: 200 to 1000 nM

## CC1CCc2c1cc1c(c2NC(=O)N=[S@@](N)(=O)c2cnc(C(C)(C)O)s2)CCC1 (single isomer, unassigned) [Example 323, (R, R) or (R, S)-2-(2-hydroxypropan-2-yl)-N′-((1-methyl-1,2,3,5,6,7-hexahydro-s-indacen-4-yl)carbamoyl)thiazole-5-sulfonimidamide]
[4]
  IC50: 40 to 200 nM

## NS(=O)(=NC(=O)Nc1c2c(cc3c1CCC3)CCC2)c1cccc(CN2CCOCC2)c1 (single isomer, unassigned) [Example 550, (R) or (S)-N′-((1,2,3,5,6,7-hexahydro-s-indacen-4-yl)carbamoyl)-3-(morpholinomethyl) benzenesulfonimidamide]
[3]
  IC50: 1000 to 5000 nM

## CC(OC(F)F)c1ccc(S(N)(=O)=NC(=O)Nc2c3c(cc4c2CCC4)CCC3)cc1 (single isomer, unassigned) [Example 640]
[2]
  IC50: 1000 to 5000 nM

## C[C@@](O)(CO)c1ncc(S(N)(=O)=NC(=O)Nc2c3c(cc4c2CC4)CCC3)s1 (stereo partly drawn) [Example 742, 2-((R)-1,2-dihydroxypropan-2-yl)-N′-((2,4,5,6-tetrahydro-1H-cyclobuta[f]inden-3-yl)carbamoyl)thiazole-5-sulfonimidamide]
[6]
  IC50: 8 to 40 nM

## CC(C)(O)c1cc(F)c(S(N)(=O)=NC(=O)Nc2c3c(cc4c2CCC4=O)CCC3)s1 (centres unmarked) [Example 438, 3-Fluoro-5-(2-hydroxypropan-2-yl)-N′-((1-oxo-1,2,3,5,6,7-hexahydro-s-indacen-4-yl)carbamoyl)thiophene-2-sulfonimidamide]
[3]
  IC50: 200 to 1000 nM

## CN(C)C(c1ccc(S(N)(=O)=NC(=O)Nc2c3c(cc4c2CCC4)CCC3)cc1)C(F)F (single isomer, unassigned) [Example 645, (S,S) or (R,S)-4-(-1-(dimethylamino)-2,2-difluoroethyl)-N′-((1,2,3,5,6,7-hexahydro-s-indacen-4-yl)carbamoyl) benzenesulfonimidamide]
hTHP-1 assay containing 2% fetal bovine serum, Table B2, given as bound, read-out: IC50
  IC50: > 30000 nM

## COCc1nc(C(C)(C)O)sc1S(N)(=O)=NC(=O)Nc1c2c(c(C#N)c3c1CCC3)CCC2 (single isomer, unassigned) [Example 532, (S) or (R)-N′-((8-cyano-1,2,3,5,6,7-hexahydro-s-indacen-4-yl)carbamoyl)-2-(2-hydroxypropan-2-yl)-4-(methoxymethyl) thiazole-5-suifoiiimidamide]
[2]
  IC50: 1000 to 5000 nM

## CN1CCc2cc(S(N)(=O)=NC(=O)Nc3c4c(cc5c3CCC5)CCC4)sc2C1 (single isomer, unassigned) [Example 559, (S) or (R)-N′-((1,2,3,5,6,7-hexahydro-s-indacen-4-yl)carbamoyl)-6-methyl-4,5,6,7-tetrahydrothieno[2,3-c]pyridine-2-sulfonimidamide]
[2]
  IC50: 1000 to 5000 nM

## CNCC1(c2ccc(S(N)(=O)=NC(=O)Nc3c4c(cc5c3CCC5)CCC4)c(F)c2)CC1 (centres unmarked) [Example 495, 2-Fluoro-N′-((1,2,3,5,6,7-hexahydro-s-indacen-4-yl)carbamoyl)-4-(1-((methylamino)methyl)cyclopropyl)benzenesulfonimidamide]
[3]
  IC50: 1000 to 5000 nM

## CN(C)Cc1ccc([S@](N)(=O)=NC(=O)Nc2c3c(cc4c2CCC4)CCC3)s1 [Compound 889a]
[3]
  IC50: 5000 to 30000 nM

## NS(=O)(=NC(=O)Nc1c2c(cc3c1CCC3)CCC2)c1ccc(C2CCNC2)cc1F (single isomer, unassigned) [Example 624, (R,R) or (S,R)-2-fluoro-N′-((1,2,3,5,6,7-hexahydro-s-indacen-4-yl)carbamoyl)-4-pyrrolidin-3-yl) benzenesulfonimidamide]
[2]
  IC50: 200 to 1000 nM

## CN(C)CCN(C)Cc1cccc(S(N)(=O)=NC(=O)Nc2c3c(cc4c2CCC4)CCC3)c1 (centres unmarked) [Example 506, 3-(((2-(Dimethylamino)ethyl) (methyl)amino)methyl)-N′-((1,2,3,5,6,7-hexahydro-s-indacen-4-yl)carbamoyl)benzenesulfonimidamide]
[3]
  IC50: 5000 to 30000 nM

## CC(C)c1cc(S(N)(=O)=NC(=O)Nc2c3c(cc4c2CCC4)CCC3)c(F)cn1 (centres unmarked) [Example 478, 5-Fluoro-N′-((1,2,3,5,6,7-hexahydro-s-indacen-4-yl)carbamoyl)-2-isopropylpyridine-4-sulfonimidamide]
[3]
  IC50: 200 to 1000 nM

## COC(C)(C)c1ncc(S(N)(=O)=NC(=O)Nc2c3c(cc4c2CCC4)CCC3)s1 (centres unmarked) [Example 295, N′-((1,2,3,5,6,7-hexahydro-s-indacen-4-yl)carbamoyl)-2-(2-methoxypropan-2-yl)-thiazole-5-sulfonimidamide]
[4]
  IC50: 40 to 200 nM

## CC(C)N(C)c1ccc(S(N)(=O)=NC(=O)Nc2c3c(cc4c2CCC4)CCC3)cc1 (single isomer, unassigned) [Example 614, (S) or (R)-N′-((1,2,3,5,6,7-hexahydro-s-indacen-4-yl)carbamoyl)-4-(isopropyl(methyl)amino) benzenesulfonimidamide]
[5]
  IC50: > 30000 nM

## C[C@](O)(CO)c1ncc(S(N)(=O)=NC(=O)Nc2c3c(cc4c2C(=O)CC4)CCC3)s1 (stereo partly drawn) [Example 744, 2-((S)-1,2-dihydroxypropan-2-yl)-N′-((3-oxo-1,2,3,5,6,7-hexahydro-s-indacen-4-yl)carbamoyl)thiazole-5-sulfonimidamide]
[6]
  IC50: 40 to 200 nM
